According to paper PMC6013238, “Development of novel NEMO-binding domain mimetics for inhibiting IKK/NF-κB activation” (PLoS Biology, 2018):

Experiments:
JNK/p38MAPK signaling = assay: Western blot of JNK and p38MAPK phosphorylation in Raw 264.7 cells; type: cell-based, mouse; conditions: 150 μM; TNF-α or LPS stimulation
Experimental: (§1) To determine whether the novel NBD mimetics target the NEMO-IKKβ interaction in vivo, co-immunoprecipitations were performed using extracts from Raw 264.7 macrophages (Fig 5A). […] No interaction between NEMO and TNF receptor-associated factor 2 (TRAF2) or IκBα was observed under these conditions. […] The levels of phosphorylated IKK complex, IκBα, and p65 in response to TNF-α and LPS were all reduced by SR12343 (Fig 5D & 5E). […] However, there were no changes in the levels of phospho-c-Jun N-terminal kinase (p-JNK), p-p38MAPK, total JNK, and p38MAPK by treatment with SR12343 (150 μM) in response to TNF-α or LPS stimulation (Fig 5G & 5H). […]
(§2) (A) Co-IP analysis detecting the IKKβ/NEMO interaction. […] NEMO-binding products were then analyzed for levels of IKKβ, IKKα, TRAF2, and IκBα (negative control), and levels of NEMO were used as a loading control (left panel). […] The levels of IKKβ-FLAG binding to GST-NEMO were determined by western blot analysis with GST-NEMO used as a loading control. […] Cell lysates were analyzed for activity of the IKK/NF-κB signaling pathway including activation of IKK complex, IκBα, and p65. […] Cell lysates were harvested and analyzed for activation of noncanonical NF-κB signaling, the processing of p100 to p52. […]

NEMO/IKKα interaction = molecular target: T1, NEMO/IKKα interaction (Mus musculus, UniProt O88522); assay: Co-immunoprecipitation of NEMO and IKKα in Raw 264.7 cells; type: cell-based; conditions: 0, 25, 50, 100, 150 μM, 30 min
T1 construct: Co-immunoprecipitation of endogenous IKKβ and NEMO; endogenous in cells; host or cells: Raw 264.7
T1 sequence (O88522 whole entry): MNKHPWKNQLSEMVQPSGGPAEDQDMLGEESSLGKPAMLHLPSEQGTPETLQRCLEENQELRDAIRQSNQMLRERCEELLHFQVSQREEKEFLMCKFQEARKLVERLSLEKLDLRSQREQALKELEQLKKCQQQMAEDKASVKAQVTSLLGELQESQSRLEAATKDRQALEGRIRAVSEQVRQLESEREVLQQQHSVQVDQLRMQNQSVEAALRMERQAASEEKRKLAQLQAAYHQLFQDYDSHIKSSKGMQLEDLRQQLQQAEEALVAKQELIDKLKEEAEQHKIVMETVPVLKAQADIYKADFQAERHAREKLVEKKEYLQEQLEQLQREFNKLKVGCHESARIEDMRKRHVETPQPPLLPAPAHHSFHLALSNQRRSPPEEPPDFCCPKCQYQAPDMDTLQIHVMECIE
Experimental: as §1, §2

Compound: O=C(CNc1ccc(Cl)cn1)NCCc1cccc(Br)c1 [SR12343]
- Levels of p-JNK, p-p38MAPK, total JNK and p38MAPK (JNK/p38MAPK signaling): no changes
- NEMO/IKKα binding (Co-IP) (NEMO/IKKα interaction): only a marginal effect
